How the values were obtained:
[1] = test system: TH+ neurons derived from mouse iPS cells; assay: In vitro survival of TH+ neurons with caspase 3 expression as index of apoptosis; assay type: cell-based; conditions: control 18.0±5.9%; no significant difference among four groups
Procedure: After the cell sorting, in order to induce the reaggregation of the cells, a PSA-NCAM^+ cell group was seeded in a DMEM/F12 medium (manufactured by Wako Pure Chemical Industries, Ltd.) in a 96-well plate at a concentration (cell density) of 20000 cells/well. The DMEM/F12 medium contained 1% N-2 supplement, 200 nM ascorbic acid, 2% B27 supplement (manufactured by Invitrogen), 0.5 mM L-glutamine and 1% P/S. In order to prevent apoptosis, a ROCK inhibitor, Y-27632 (manufactured by Wako Pure Chemical Industries, Ltd.), was used at a concentration of 30 μM during the cell sorting process and the following overnight cultivation. On day 10 after starting the SFEB, any one of valproic acid (VPA) (manufactured by Sigma-Aldrich), zonisamide (ZNS) sodium salt (manufactured by Sumitomo Dainippon Pharma Co., Ltd.), 17β estradiol (E2) (manufactured by Sigma-Aldrich), a glial cell line derived neurotrophic factor (GDNF) (manufactured by R & D Systems) and PBS(-) was added to the medium for 4 days. Each of VPA, ZNS and E2 was used at three different concentrations. Specifically, the concentration of VPA was 0.01 mM, 0.1 mM or 1 mM, the concentration of ZNS was 1 μM, 10 μM or 100 μM, and the concentration of E2 was 1 nM, 10 nM or 100 nM. GDNF was added at a concentration of […] to be used as a positive control. […]

[2] = test system: grafts derived from mouse iPS cells; assay: Transplantation experiment of mouse iPS cell-derived dopamine neural progenitor cells into striatum of SD rats (immunohistochemistry of grafts); assay type: in vivo; conditions: four weeks after transplantation
Procedure: Ten-week-old Sprague-Dawley rats (SD rats, available from Shimizu Laboratory Supplies Co., Ltd.) were handled in accordance with the Guidelines for Animal Experiments of Kyoto University. Each SD rat was anesthetized, and donor cells were transplanted by stereotaxic injection into striatums on both sides. Two cell aggregates (containing 3.1×10^5 cells on average) obtained on day 9 after starting the SFEB were collected in 1 μl of PBS(-) so as to be used as the donor cells for the transplantation in each tract. To the PBS(-), Y-27632 was added at a final concentration of […]. Thereafter, intraperitoneal injection of VPA (150 mg/kg/day), ZNS sodium salt (30 mg/kg/day), E2 (80 μM/kg/day) or a saline was conducted from two days before transplanting the donor cells until a day of necropsy. For immunosuppression, cyclosporin A (CsA, manufactured by Wako Pure Chemical Industries, Ltd.) was administered to all the SD rats at a daily dose of 10 mg/kg. Four weeks after the transplantation of the donor cells, the brains of the SD rats were washed and fixed by intracardially perfusing 4% paraformaldehyde under deep anesthesia. On the day of necropsy, a blood sample was collected from each SD rat one hour after the final injection of the test compound or CsA. Such a sample was sent to SRL, Inc. (Tokyo, Japan) where the blood concentration of the administered drug (test compound) was measured.
In an in vitro experiment, a cell aggregate treated with any of the above-described test compounds on day 14 after starting the SFEB was fixed with 4% paraformaldehyde. Thereafter, the fixed cell aggregate was frozen and sliced into thin sections each having a thickness of 10 μM by using a microtome for immunocytochemistry. On the other hand, in an in vivo experiment (transplantation experiment), the brain of a SD rat or a SCID rat was taken out after the transplantation experiment to be fixed again with 4% paraformaldehyde for 2 days. Thereafter, the fixed brain of the SD rat or SCID rat was cryopreserved in 30% sucrose for 3 days, frozen, and sliced into thin sections each having a thickness of 40 μM for immunohistochemistry. The frozen sections of the sphere (spherical cell mass) and the brain were subjected to a permeabilization and blocking treatment in PBS(-) for 1 hour at room temperature to be used as samples. The PBS(-) contained 0.3% Triton-X and 2% donkey serum. Thereafter, each of the sections was incubated overnight together with a primary antibody at 4° C. Primary antibodies used in this example are a rabbit anti-tyrosine hydroxylase antibody (dilution rate of 1:400, TH; manufactured by Millipore), a mouse anti-TH antibody (dilution rate of 1:200, manufactured by Millipore), a sheep anti-TH antibody (dilution rate of 1:400, manufactured by Millipore), a mouse anti-Tubβ3 antibody (dilution rate of 1:1000, Tuj1; manufactured by Covance Inc.), a rat anti-NURR1 antibody (dilution rate of 1:1000, KAN Research Institute, Inc., Kobe, Japan), a rabbit anti-Ki67 antibody (dilution rate of 1:1000, manufactured by Novocastra: NCL-Ki67p), a rabbit anti-caspase 3 antibody (dilution rate of 1:500, manufactured by Santa Cruz Biotechnology, Inc.), a rat anti-M2M6 antibody (dilution rate of 1:50, manufactured by Developmental Study Hybridoma Bank), a mouse anti-Nestin antibody (dilution rate of 1:50; manufactured by Millipore), a rabbit anti-Pitx3 antibody (dilution rate of 1:500; manufactured by Chemicon International Inc.), a goat […] antibody (dilution rate of 1:500, Foxa2; manufactured by Santa Cruz Biotechnology, Inc.), a mouse anti-human Nuclei antibody (dilution rate of 1:1000; manufactured by Millipore), and a mouse anti-NeuN antibody (dilution rate of 1:500, manufactured by Chemicon International Inc.). After washing with PBS (0.05% Tween-20) three times, the resultant sample was incubated with an Alexa Fluor-conjugated secondary antibody for 1 hour at room temperature. […]

CCCC(CCC)C(=O)[O-].[Na+] [VPA, sodium 2-propylpentanoate]
ratio of dopaminergic neurons undergoing apoptosis (TH+ neurons expressing caspase 3) [1]: low | volume of graft ([2]; VPA 150 mg/kg/day i.p., control 9.76±3.19 mm^3, no significant difference): 4.33±2.14 mm^3 | ratio of NeuN+ cells to the number of all the cells in a graft ([2]; VPA 150 mg/kg/day i.p., control 57.7±9.4%): 77.9±5.1% | number of TH+ cells in a graft ([2]; VPA 150 mg/kg/day i.p., control 393±311 cells): 1396±864 cells | ratio of TH+ cells that were FOXA2+ ([2]; VPA 150 mg/kg/day or ZNS 30 mg/kg/day i.p., control 24.7±9.3%): 81.8±33.6% | number of midbrain dopaminergic neurons (TH+ FOXA2+) in a graft ([2]; VPA 150 mg/kg/day or ZNS 30 mg/kg/day i.p., control 97±76 cells): 984±770 cells

— patent publication US20160106719A1, “Transplantation Adjuvant in Cell Therapy Using Neural Progenitor Cells” (SUMITOMO DAINIPPON PHARMA CO., LTD., priority 2013, published 2016)
